Laboratory results from patent US8653087B2, “Pyrido [5, 4-D] pyrimidines as cell proliferation inhibitors” (Boehringer Ingelheim International GmbH, priority 2008, dated 2014).

Biological target: B-Raf (V600E)-kinase (Homo sapiens (Human), UniProt P15056, V600E)
Test: Kinase test B-RAF (V600E)
Format: biochemical
Settings: B-RAF (V600E) kinase test, 250 μM ATP
Method in brief: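 B-Raf (V600E) (0.5 ng) preincubated with compound 24 h at RT (5% DMSO), then reacted 60 min at RT with 250 μM ATP and biotinylated MEK1 as substrate. Phospho-MEK (Ser217/221) captured on streptavidin and detected by europium time-resolved fluorescence; IC50 from dose-response curves.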

Sequence of B-Raf (V600E)-kinase (P15056 whole entry V600E): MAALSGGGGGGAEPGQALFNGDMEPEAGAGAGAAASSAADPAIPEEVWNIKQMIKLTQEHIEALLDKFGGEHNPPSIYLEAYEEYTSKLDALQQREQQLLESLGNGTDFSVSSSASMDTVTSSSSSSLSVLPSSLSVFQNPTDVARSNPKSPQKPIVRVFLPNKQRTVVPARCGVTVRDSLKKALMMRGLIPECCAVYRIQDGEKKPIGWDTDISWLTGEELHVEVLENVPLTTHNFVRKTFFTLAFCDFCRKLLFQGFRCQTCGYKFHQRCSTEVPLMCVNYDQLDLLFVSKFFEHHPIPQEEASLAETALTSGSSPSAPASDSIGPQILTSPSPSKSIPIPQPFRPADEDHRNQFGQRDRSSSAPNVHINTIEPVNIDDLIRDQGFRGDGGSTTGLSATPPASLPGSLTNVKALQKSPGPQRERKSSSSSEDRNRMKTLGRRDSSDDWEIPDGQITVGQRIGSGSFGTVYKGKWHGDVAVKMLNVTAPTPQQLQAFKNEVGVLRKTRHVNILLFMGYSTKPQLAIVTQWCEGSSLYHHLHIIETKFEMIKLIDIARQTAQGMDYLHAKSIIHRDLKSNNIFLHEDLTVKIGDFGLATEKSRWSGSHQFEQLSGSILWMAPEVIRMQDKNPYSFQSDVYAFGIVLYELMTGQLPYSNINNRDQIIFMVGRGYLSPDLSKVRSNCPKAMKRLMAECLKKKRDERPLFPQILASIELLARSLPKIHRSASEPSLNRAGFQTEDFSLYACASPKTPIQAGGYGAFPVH

Row | SMILES | IC50 [nM]
1 | Cc1ccc(C(=O)Nc2nnc(C(F)(F)F)s2)cc1Nc1ncnc2cnc(N3CCOCC3)nc12 [III-313] | 200
2 | Cc1ccc(C(=O)Nc2ccc(F)c(C(F)(F)F)c2)cc1Nc1ncnc2cnc(N3CCOCC3)nc12 [III-314] | 9
3 | Cc1ccc(C(=O)Nc2cccc(C(F)(F)F)c2)cc1Nc1ncnc2cnc(N3CCOCC3)nc12 [III-315] | < 1
4 | CN(C)CCN(C)c1ncc2ncnc(Nc3cc(C(=O)Nc4cc(C(C)(C)C)on4)ccc3F)c2n1 [III-316] | 3
5 | CN(CCN1CCCC1)c1ncc2ncnc(Nc3cc(C(=O)Nc4cc(C(C)(C)C)on4)ccc3F)c2n1 [III-317] | 14
6 | CN1CCN(c2ncc3ncnc(Nc4cc(C(=O)Nc5cc(C(C)(C)C)on5)ccc4F)c3n2)CC1 [III-318] | 2
7 | Cc1ccc(C(=O)Nc2cccc(S(=O)(=O)N(C)C)c2)cc1Nc1ncnc2cnc(N3CCOCC3)nc12 [III-320] | 2
8 | Cc1ccc(C(=O)Nc2cc(C(F)(F)F)ccn2)cc1Nc1ncnc2cnc(N3CCOCC3)nc12 [III-321] | < 1
9 | Cc1ccc(C(=O)Nc2cccc(C(C)(C)C#N)c2)cc1Nc1ncnc2cnc(N3CCOCC3)nc12 [III-322] | 1
10 | COc1c(NC(=O)c2ccc(C)c(Nc3ncnc4cnc(N5CCOCC5)nc34)c2)cc(C(C)(C)C)cc1NS(C)(=O)=O [III-323] | 11
11 | Cc1ccc(C(=O)NCc2cccc(C(F)(F)F)c2)cc1Nc1ncnc2cnc(N3CCOCC3)nc12 [III-324] | 55
12 | Cc1ccc(C(=O)NC2CCCCC2)cc1Nc1ncnc2cnc(N3CCOCC3)nc12 [III-325] | 1400
13 | Cc1ccc(C(=O)Nc2ccccc2)cc1Nc1ncnc2cnc(N3CCOCC3)nc12 [III-326] | 292
14 | Cc1ccc(C(=O)NCc2cccc(C(C)(C)C)c2)cc1Nc1ncnc2cnc(N3CCOCC3)nc12 [III-327] | 56
15 | Cc1ccc(C(=O)Nc2nnc(C(F)(F)F)s2)cc1Nc1ncnc2cnc(N3CCCCC3)nc12 [III-328] | 442
16 | Cc1ccc(C(=O)Nc2ccc(F)c(C(F)(F)F)c2)cc1Nc1ncnc2cnc(N3CCCCC3)nc12 [III-329] | 17
17 | Cc1ccc(C(=O)Nc2cccc(C(F)(F)F)c2)cc1Nc1ncnc2cnc(N3CCCCC3)nc12 [III-330] | 6
18 | Cc1ccc(C(=O)Nc2ccc(Cl)c(C(F)(F)F)c2)cc1Nc1ncnc2cnc(N3CCCCC3)nc12 [III-331] | 10
19 | Cc1ccc(C(=O)Nc2cccc(OC(F)(F)F)c2)cc1Nc1ncnc2cnc(N3CCCCC3)nc12 [III-332] | 4
20 | Cc1ccc(C(=O)Nc2ccc(C#N)c(C(F)(F)F)c2)cc1Nc1ncnc2cnc(N3CCCCC3)nc12 [III-333] | 56
21 | Cc1ccc(C(=O)Nc2cccc(S(=O)(=O)N(C)C)c2)cc1Nc1ncnc2cnc(N3CCCCC3)nc12 [III-334] | 10
22 | Cc1ccc(C(=O)Nc2cc(C(F)(F)F)ccn2)cc1Nc1ncnc2cnc(N3CCCCC3)nc12 [III-335] | 8
23 | Cc1ccc(C(=O)NCc2cccc(C(C)(C)C)c2)cc1Nc1ncnc2cnc(N3CCCN(C)CC3)nc12 [III-336] | 140
24 | Cc1ccc(C(=O)Nc2ccc(Cl)c(C(F)(F)F)c2)cc1Nc1ncnc2cnc(N3CCOCC3)nc12 [III-337] | 2
25 | COc1c(NC(=O)c2ccc(C)c(Nc3ncnc4cnc(N5CCCCC5)nc34)c2)cc(C(C)(C)C)cc1NS(C)(=O)=O [III-338] | 41
26 | Cc1ccc(C(=O)Nc2cccc(C(F)(F)F)c2)cc1Nc1ncnc2cnc(N3CCNCC3)nc12 [III-339] | 1
27 | Cc1ccc(C(=O)Nc2ccc(C#N)c(C(F)(F)F)c2)cc1Nc1ncnc2cnc(N3CCOCC3)nc12 [III-340] | 4
28 | Cc1ccc(C(=O)Nc2cccc(C(C)(C)C)c2)cc1Nc1ncnc2cnc(N3CCNCC3)nc12 [III-341] | < 1

Row | SMILES | IC50 [nM]
29 | Cc1ccc(C(=O)Nc2nnc(C(F)(F)F)s2)cc1Nc1ncnc2cnc(N3CCNCC3)nc12 [III-342] | 2120
30 | COc1ccc(C(C)(C)C)cc1NC(=O)c1ccc(C)c(Nc2ncnc3cnc(N4CCNCC4)nc23)c1 [III-343] | 2
31 | Cc1ccc(C(=O)Nc2cccc(S(=O)(=O)N(C)C)c2)cc1Nc1ncnc2cnc(N3CCNCC3)nc12 [III-344] | 7
32 | Cc1ccc(C(=O)Nc2cc(C(F)(F)F)ccn2)cc1Nc1ncnc2cnc(N3CC[C@H](F)C3)nc12 [III-345] | 1
33 | COc1ccc(C(F)(F)F)cc1NC(=O)c1ccc(C)c(Nc2ncnc3cnc(NC4CCOC4)nc23)c1 (stereo not shown) [III-347] | 1
34 | Cc1ccc(C(=O)Nc2cc(C(C)(C)C)nn2C)cc1Nc1ncnc2cnc(NC3CCOC3)nc12 (stereo not shown) [III-348] | < 1
35 | Cc1ccc(C(=O)Nc2cccc(C(F)(F)F)c2)cc1Nc1ncnc2cnc(NC3CCOC3)nc12 (stereo not shown) [III-349] | < 1
36 | Cc1ccc(C(=O)Nc2cccc(C(C)(C)C)c2)cc1Nc1ncnc2cnc(NC3CCOC3)nc12 (stereo not shown) [III-350] | < 1
37 | CCN1CCN(c2cc(NC(=O)c3ccc(C)c(Nc4ncnc5cnc(NC6CCOC6)nc45)c3)cc(C(F)(F)F)c2)CC1 (stereo not shown) [III-351] | < 1
38 | Cc1ccc(C(=O)Nc2cc(C(C)(C)C)n[nH]2)cc1Nc1ncnc2cnc(NC3CCOC3)nc12 (stereo not shown) [III-353] | < 1
39 | Cc1ccc(C(=O)n2nc(C(C)(C)C)cc2N)cc1Nc1ncnc2cnc(NC3CCOC3)nc12 (stereo not shown) [III-354] | 20
40 | Cc1ccc(C(=O)Nc2cc(C(F)(F)F)ccn2)cc1Nc1ncnc2cnc(NC3CCOC3)nc12 (stereo not shown) [III-355] | < 1
41 | COc1ccc(NC(=O)c2ccc(C)c(Nc3ncnc4cnc(NC5CCOC5)nc34)c2)cc1C(F)(F)F (stereo not shown) [III-356] | < 1
42 | Cc1ccc(C(=O)Nc2cc(C(C)(C)C)on2)cc1Nc1ncnc2cnc(NC3CCOC3)nc12 (stereo not shown) [III-357] | < 1
43 | COCCNc1ncc2ncnc(Nc3cc(C(=O)Nc4cc(C(C)(C)C)on4)ccc3C)c2n1 [III-358] | 1
44 | Cc1ccc(C(=O)Nc2cc(C(C)(C)C)on2)cc1Nc1ncnc2cnc(NCC3CCOC3)nc12 (stereo not shown) [III-359] | 2
45 | Cc1ccc(C(=O)Nc2cc(C(C)(C)C)on2)cc1Nc1ncnc2cnc(N(C)CC3CCOC3)nc12 (stereo not shown) [III-360] | 3
46 | Cc1ccc(C(=O)Nc2cc(C(C)(C)C)on2)cc1Nc1ncnc2cnc(NCC3CCCCO3)nc12 (stereo not shown) [III-361] | 2
47 | COC[C@@H]1CCCN1c1ncc2ncnc(Nc3cc(C(=O)Nc4cc(C(C)(C)C)on4)ccc3C)c2n1 [III-362] | 3
48 | Cc1ccc(C(=O)Nc2cc(C(C)(C)C)on2)cc1Nc1ncnc2cnc(N3CCC[C@H]3CO)nc12 [III-363] | < 1
49 | Cc1ccc(C(=O)Nc2cc(C(C)(C)C)on2)cc1Nc1ncnc2cnc(N(C)C3CCOC3)nc12 (stereo not shown) [III-365] | 1
50 | Cc1ccc(C(=O)Nc2cc(C(C)(C)C)on2)cc1Nc1ncnc2cnc(N3CC(F)(F)C3)nc12 [III-366] | 6
51 | Cc1cn(-c2ncc3ncnc(Nc4cc(C(=O)Nc5cc(C(C)(C)C)on5)ccc4C)c3n2)cn1 [III-367] | 2
52 | Cc1ccc(C(=O)Nc2cc(C(C)(C)C)on2)cc1Nc1ncnc2cnc(N3C[C@@H](C)O[C@@H](C)C3)nc12 [III-368] | 14
53 | Cc1ccc(C(=O)Nc2cc(C(C)(C)C)on2)cc1Nc1ncnc2cnc(N3CCCOCC3)nc12 [III-369] | 2
54 | Cc1ccc(C(=O)Nc2cc(C(C)(C)C)on2)cc1Nc1ncnc2cnc(N3CCN(CCN4CCOCC4)CC3)nc12 [III-370] | 1
55 | Cc1cc(C(=O)Nc2cc(C(C)(C)C)nn2C)cc(Nc2ncnc3cnc(N4CCOCC4)nc23)c1C [III-372] | 5
